In PMC3447791, “High Mannose-Binding Antiviral Lectin PFL from Pseudomonas fluorescens Pf0-1 Promotes Cell Death of Gastric Cancer Cell MKN28 via Interaction with α2-Integrin” (PLoS ONE, 2012):

Experiments:
PFL [1] = biological target: T1, PFL (Pseudomonas fluorescens, UniProt Q3KJ04); assay: CFG printed glycan microarray v5.[…], fluorescence; type: binding; conditions: 10 μg/ml Alexa488-PFL; glycan immobilised on array
T1 construct: gene Pfl01_0508; full length, 132 residues, two homologous domains; pET101/D-TOPO with native stop codon, E. coli BL21 Star (DE3); Alexa Fluor 488 labelled for the array
T1 sequence (Q3KJ04 2-133): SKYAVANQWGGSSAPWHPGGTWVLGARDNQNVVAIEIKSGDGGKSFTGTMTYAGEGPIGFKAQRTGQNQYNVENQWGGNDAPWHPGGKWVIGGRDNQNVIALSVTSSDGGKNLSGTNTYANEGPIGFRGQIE

PFL [2] = biological target: T1, PFL; assay: CFG printed glycan microarray v5.[…], fluorescence; type: binding; conditions: 10 μg/ml Alexa488-PFL; glycan immobilised on array; remark: listed apart in the source

M6 glycan [compound 216] gave an RFU (PFL [1]) of 43471 RFU.
For M7 glycan [compound 211], the “binding potency relative to M6 glycan (216)” value (PFL [2]) was ~ 53%.
Substance M8 glycan [compound 212] has an RFU (PFL [1]) of 40759 RFU.
For “fucosylated counterpart of pentasaccharide core of N-glycan (50) [compound 485]”, the RFU (PFL [1]) was 746 RFU.
